The source of these data is the supplement of paper PMC10307832.

Assay in all cases: relative viability (nuclei count vs DMSO), 5 days (fraction); higher = more cells survive
Compound in the assay “Lapatinib + Linsitinib”: CS(=O)(=O)CCNCc1ccc(-c2ccc3ncnc(Nc4ccc(OCc5cccc(F)c5)c(Cl)c4)c3c2)o1 [Lapatinib] + C[C@]1(O)C[C@@H](c2nc(-c3ccc4ccc(-c5ccccc5)nc4c3)c3c(N)nccn32)C1 [Linsitinib] (partner 1 µM)
Summed up:
(§1)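 Relative viability is defined as nuclei in treated wells over nuclei in vehicle wells. Duplicate plates were run and medians reported. Lung cancer cell lines in 1536-well plates were dosed by pin tool one day after seeding, with one drug or with a fixed anchor-drug dose plus five library-drug doses (not always all listed) in √10 steps, and nuclei were counted after 5 days.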

Compound in the assay “Lapatinib + Pictilisib”: CS(=O)(=O)CCNCc1ccc(-c2ccc3ncnc(Nc4ccc(OCc5cccc(F)c5)c(Cl)c4)c3c2)o1 [Lapatinib] + CS(=O)(=O)N1CCN(Cc2cc3nc(-c4cccc5[nH]ncc45)nc(N4CCOCC4)c3s2)CC1 [Pictilisib] (partner 1 µM)
The gist of the method: as §1

Compound in the assay “Wnt-C59 + Linsitinib”: CC1=NC=CC(=C1)C2=CC=C(C=C2)CC(=O)NC3=CC=C(C=C3)C4=CN=CC=C4 [Wnt-C59] + C[C@]1(O)C[C@@H](c2nc(-c3ccc4ccc(-c5ccccc5)nc4c3)c3c(N)nccn32)C1 [Linsitinib] (partner 1 µM)
Summed up: as §1

Compound in the assay “Wnt-C59 + Luminespib”: CC1=NC=CC(=C1)C2=CC=C(C=C2)CC(=O)NC3=CC=C(C=C3)C4=CN=CC=C4 [Wnt-C59] + CCNC(=O)c1noc(-c2cc(C(C)C)c(O)cc2O)c1-c1ccc(CN2CCOCC2)cc1 [Luminespib] (partner 0.01 µM)
The gist of the method: as §1

On to UMC-11, for which the relative viability with Lapatinib + Linsitinib (first compound 0.02 µM) is 1; in the assay with Lapatinib + Linsitinib (first compound 0.06325 µM), 0.964; with Lapatinib + Linsitinib (first compound 0.2 µM), 1.11; in the assay with Lapatinib + Linsitinib (first compound 0.6325 µM) it was 0.985; with Lapatinib + Linsitinib (first compound 2 µM) it was 1.02; in the assay with Lapatinib + Pictilisib (first compound 0.02 µM), 0.251. In addition, the relative viability with Lapatinib + Pictilisib (first compound 0.06325 µM) was found to be 0.731; with Lapatinib + Pictilisib (first compound 0.2 µM) it was 0.827; with Lapatinib + Pictilisib (first compound 0.6325 µM), 0.839; in the assay with Lapatinib + Pictilisib (first compound 2 µM) it was 0.759; with Wnt-C59 + Linsitinib (first compound 0.001 µM), 0.96; in the assay with Wnt-C59 + Linsitinib (first compound 0.01 µM) it was 0.977. Further, the relative viability with Wnt-C59 + Linsitinib (first compound 0.03162 µM) turned out to be 1.04; with Wnt-C59 + Linsitinib (first compound 0.1 µM), 0.991; with Wnt-C59 + Luminespib (first compound 0.001 µM), 0.932; in the assay with Wnt-C59 + Luminespib (first compound 0.01 µM), 1.1; with Wnt-C59 + Luminespib (first compound 0.03162 µM) it was 1.19; in the assay with Wnt-C59 + Luminespib (first compound 0.1 µM), 0.979.
